The test system of experiment [1] is breast cancer cell line MX-1. Description: MX-1 cell line proliferation assay. In kind it is cell-based. The conditions noted are these: Homo sapiens, MX1, 72 h, MX-1 cells, 3-day proliferation assay, Cell Titer Glo; read-out: Cellular proliferation EC50. In outline: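 Cells seeded at 5000/well in RPMI 1640 with 10% FBS, allowed to adhere overnight at 37 °C, then exposed to compound at final 0.0001–3 μM for 3 days. Viability read by Cell Titer Glo luminescence, normalized to DMSO controls; EC50 from sigmoidal curve fit.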
For orientation: In ATP-based viability assays light output follows the ATP content of the culture.

Experiment [2] addresses T1, BRD4 (BDI_K57-E168) (Homo sapiens, UniProt O60885).
T1 construct: BD1: amino acids K57-E168; made in house
The experiment in a line: TR-FRET bromodomain binding assay, first bromodomain of BRD4. The conditions noted are these: His-tagged BD1, 100 nM Alexa647 probe; TR-FRET protocol A-E given per row. The method, boiled down:
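His-tagged BRD4 BD1 (K57-E168), 8 nM, with 1 nM Eu-anti-His antibody and 100 nM Alexa647-labelled BET-inhibitor probe in pH 6.0 phosphate buffer, 2% DMSO. TR-FRET read after 1 h at room temperature. IC50 from 4-parameter fit, converted to Ki using probe Kd and concentration.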
(In general: TR-FRET usually uses a lanthanide donor and a delayed reading to cut background.)

Experiment [3] addresses T2, BRD4 (BDII_E352-M457) (Homo sapiens, UniProt O60885).
T2 construct: proliferation; Protocol; made in house
Description: TR-FRET bromodomain binding assay, second bromodomain of BRD4. The note with it: His-tagged BD2, 30 nM Alexa647 probe; TR-FRET protocol A-E given per row. The method, boiled down:
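His-tagged BRD4 BD2 ([…]) competed against an Alexa647-labelled BET-inhibitor probe in TR-FRET. Buffer was 20 mM sodium phosphate pH 6.0, 50 mM NaCl, 1 mM EDTA, 0.01% Triton X-100, 1 mM DTT, with method D DMSO series of 2.5 mM–800 nM (stock range). IC50 from 4-parameter fit, Ki from probe Kd and concentration.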

Where only a bound is given, the exact number is not on record here.

What is called Ki is a dissociation constant, usually derived from enzyme kinetics or from competition with a known ligand.

Turning to `COC1CCN(Cc2ccc(Oc3ccc(F)cc3F)c(-c3cn(C)c4c(=O)[nH]ccc34)c2)CC1` [Example 115, 3-{2-(2,4-difluorophenoxy)-5-[(4-methoxypiperidin-1-yl)methyl]phenyl}-1-methyl-1,6-dihydro-7H-pyrrolo[2,3-c]pyridin-7-one], the EC50 in experiment [1] came to 1420 nM. Also, the Ki in experiment [2] was found to be 1350 nM; in experiment [3] it was 1330 nM.

In the case of `Cn1cc(-c2cc(CNCc3ccoc3)ccc2Oc2ccc(F)cc2F)c2cc[nH]c(=O)c21` [Example 127, 3-[2-(2,4-difluorophenoxy)-5-{[(furan-3-ylmethyl)amino]methyl}phenyl]-1-methyl-1,6-dihydro-7H-pyrrolo[2,3-c]pyridin-7-one], the EC50 in experiment [1] turned out to be 947 nM. The Ki is 619 nM in experiment [2] and 476 nM in experiment [3].

Take `CCS(=O)(=O)Nc1ccc(Oc2ccc(F)cc2F)c(-c2cn(C)c3c(=O)[nH]c(C4CCN(C(=O)C5CC5)CC4)cc23)c1` [Example 185, N-[3-{5-[1-(cyclopropylcarbonyl)piperidin-4-yl]-1-methyl-7-oxo-6,7-dihydro-1H-pyrrolo[2,3-c]pyridin-3-yl}-4-(2,4-difluorophenoxy)phenyl]ethanesulfonamide]: in experiment [1], the EC50 came to 61.4 nM. The Ki worked out at 4.29 nM in experiment [2] and 7.94 nM in experiment [3].

Regarding `Cn1cc(-c2cc(S(C)(=O)=O)ccc2OC2CCCOC2)c2cc[nH]c(=O)c21` (stereo not drawn) [Example 26, 1-methyl-3-[5-(methylsulfonyl)-2-(tetrahydro-2H-pyran-3-yloxy)phenyl]-1,6-dihydro-7H-pyrrolo[2,3-c]pyridin-7-one], the EC50 in experiment [1] worked out at 123 nM. Further, the Ki in experiment [2] amounted to 7 nM; in experiment [3], 60 nM.

In the case of `Cn1cc(-c2cc(S(C)(=O)=O)ccc2O[C@H]2CC[C@@H](O)CC2)c2cc[nH]c(=O)c21` [Example 33, 3-{2-[(cis-4-hydroxycyclohexyl)oxy]-5-(methylsulfonyl)phenyl}-1-methyl-1,6-dihydro-7H-pyrrolo[2,3-c]pyridin-7-one], in experiment [1], the EC50 is 716 nM. Also, the results for the inhibitory constant (Ki) in experiment [2] and in experiment [3] were 34 nM and 274 nM, respectively.

In the case of `Cn1cc(-c2cc(S(C)(=O)=O)ccc2O[C@H]2CC[C@H](O)CC2)c2cc[nH]c(=O)c21` [Example 34, 3-{2-[(trans-4-hydroxycyclohexyl)oxy]-5-(methylsulfonyl)phenyl}-1-methyl-1,6-dihydro-7H-pyrrolo[2,3-c]pyridin-7-one], in experiment [1], the EC50 worked out at 95 nM. In addition, the Ki in experiment [2] came out at 1.6 nM; in experiment [3], 29 nM.

As for `Cn1cc(-c2cc(CNS(=O)(=O)Cc3ccc(Cl)cc3)ccc2Oc2ccc(F)cc2F)c2cc[nH]c(=O)c21` [Example 131, 1-(4-chlorophenyl)-N-[4-(2,4-difluorophenoxy)-3-(1-methyl-7-oxo-6,7-dihydro-1H-pyrrolo[2,3-c]pyridin-3-yl)benzyl]methanesulfonamide], the EC50 in experiment [1] turned out to be 1400 nM. In addition, the Ki in experiment [2] is 281 nM; in experiment [3] it was 1250 nM.

For the compound `Cc1nn(-c2ccccc2)c(Cl)c1CNc1ccc(Oc2ccc(F)cc2F)c(-c2cn(C)c3c(=O)[nH]ccc23)c1` [Example 171, 3-[5-{[(5-chloro-3-methyl-1-phenyl-1H-pyrazol-4-yl)methyl]amino}-2-(2,4-difluorophenoxy)phenyl]-1-methyl-1,6-dihydro-7H-pyrrolo[2,3-c]pyridin-7-one], in experiment [1], the EC50 stood at 198 nM. For the same compound, the Ki was 176 nM in experiment [2] and 384 nM in experiment [3].

In the case of `Cn1cc(-c2cc(S(C)(=O)=O)ccc2OCC2CCC(F)(F)CC2)c2cc[nH]c(=O)c21` [Example 41, 3-{2-[(4,4-difluorocyclohexyl)methoxy]-5-(methylsulfonyl)phenyl}-1-methyl-1,6-dihydro-7H-pyrrolo[2,3-c]pyridin-7-one], the EC50 in experiment [1] was found to be 403 nM. The Ki in experiment [2] was determined as 63 nM; in experiment [3] it was 406 nM.

For the compound `CCS(=O)(=O)Nc1ccc(Oc2ccc(F)cc2F)c(-c2cn(C)c3c(=O)[nH]c(C4CCNCC4)cc23)c1` [Example 183, N-{4-(2,4-difluorophenoxy)-3-[1-methyl-7-oxo-5-(piperidin-4-yl)-6,7-dihydro-1H-pyrrolo[2,3-c]pyridin-3-yl]phenyl}ethanesulfonamide], in experiment [1], the EC50 is 356 nM. Further, the Ki in experiment [2] amounted to 2.63 nM; in experiment [3] it was 13.4 nM.

`Cn1cc(-c2cc(CS(N)(=O)=O)ccc2Oc2ccc(F)cc2F)c2cc[nH]c(=O)c21` [Example 96, 1-[4-(2,4-difluorophenoxy)-3-(1-methyl-7-oxo-6,7-dihydro-1H-pyrrolo[2,3-c]pyridin-3-yl)phenyl]methanesulfonamide]: the EC50 in experiment [1] came out at 15 nM. Further, the Ki worked out at 6.9 nM in experiment [2] and 11 nM in experiment [3].

On to `Cn1cc(-c2cc(S(C)(=O)=O)ccc2OCC2CCC2)c2cc[nH]c(=O)c21` [Example 28, 3-[2-(cyclobutylmethoxy)-5-(methylsulfonyl)phenyl]-1-methyl-1,6-dihydro-7H-pyrrolo[2,3-c]pyridin-7-one], for which the EC50 in experiment [1] is 129 nM. In addition, the figures for the Ki in experiment [2] and in experiment [3] were 9.3 nM and 53 nM, respectively.

As for `Cn1cc(-c2cc(CNS(=O)(=O)Cc3ccc(C#N)cc3)ccc2Oc2ccc(F)cc2F)c2cc[nH]c(=O)c21` [Example 134, 1-(4-cyanophenyl)-N-[4-(2,4-difluorophenoxy)-3-(1-methyl-7-oxo-6,7-dihydro-1H-pyrrolo[2,3-c]pyridin-3-yl)benzyl]methanesulfonamide], in experiment [1], the EC50 was 456 nM. The Ki in experiment [2] worked out at 103 nM; in experiment [3], 518 nM.

On to `Cc1cnc(C(=O)Nc2ccc(Oc3ccc(F)cc3F)c(-c3cn(C)c4c(=O)[nH]ccc34)c2)cn1` [Example 151, N-[4-(2,4-difluorophenoxy)-3-(1-methyl-7-oxo-6,7-dihydro-1H-pyrrolo[2,3-c]pyridin-3-yl)phenyl]-5-methylpyrazine-2-carboxamide], for which, in experiment [1], the EC50 was determined as 200 nM. Moreover, the Ki in experiment [2] came out at 16.1 nM; in experiment [3], 32 nM.

As for `Cn1cc(-c2cc(NCc3ccc(OCc4ccccc4)cc3)ccc2Oc2ccc(F)cc2F)c2cc[nH]c(=O)c21` [Example 170, 3-[5-{[4-(benzyloxy)benzyl]amino}-2-(2,4-difluorophenoxy)phenyl]-1-methyl-1,6-dihydro-7H-pyrrolo[2,3-c]pyridin-7-one], the EC50 in experiment [1] was determined as 1020 nM. For the same compound, the Ki came out at 216 nM in experiment [2] and 1100 nM in experiment [3].

In the case of `Cn1cc(-c2cc(NS(=O)(=O)Cc3ccccc3)ccc2Oc2ccc(F)cc2F)c2cc[nH]c(=O)c21` [Example 180, N-[4-(2,4-difluorophenoxy)-3-(1-methyl-7-oxo-6,7-dihydro-1H-pyrrolo[2,3-c]pyridin-3-yl)phenyl]-1-phenylmethanesulfonamide], the EC50 in experiment [1] is more than 1000 nM. The values for the Ki in experiment [2] and in experiment [3] were 34.9 nM and 59.3 nM, respectively.

For `Cn1cc(-c2cc(S(C)(=O)=O)ccc2OCCC(C)(C)C)c2cc[nH]c(=O)c21` [Example 40, 3-[2-(3,3-dimethylbutoxy)-5-(methylsulfonyl)phenyl]-1-methyl-1,6-dihydro-7H-pyrrolo[2,3-c]pyridin-7-one], the EC50 in experiment [1] is 87 nM. In addition, the Ki in experiment [2] was 23 nM; in experiment [3], 64 nM.

Turning to `CCS(=O)(=O)Nc1ccc(Oc2ccc(F)cc2F)c(-c2cn(C)c3c(=O)[nH]c(C(=O)NCC#N)cc23)c1` [Example 189, N-(cyanomethyl)-3-{2-(2,4-difluorophenoxy)-5-[(ethylsulfonyl)amino]phenyl}-1-methyl-7-oxo-6,7-dihydro-1H-pyrrolo[2,3-c]pyridine-5-carboxamide], the EC50 in experiment [1] amounted to 77.9 nM. For the same compound, the Ki was 1.95 nM in experiment [2] and 8.82 nM in experiment [3].

For `CNS(=O)(=O)Cc1ccc(Oc2ccc(F)cc2F)c(-c2cn(C)c3c(=O)[nH]ccc23)c1` [Example 100, 1-[4-(2,4-difluorophenoxy)-3-(1-methyl-7-oxo-6,7-dihydro-1H-pyrrolo[2,3-c]pyridin-3-yl)phenyl]-N-methylmethanesulfonamide], the EC50 in experiment [1] was 9 nM. The results for the Ki in experiment [2] and in experiment [3] were 4.1 nM and 4.8 nM, respectively.

On to `Cn1cc(-c2cc(S(C)(=O)=O)ccc2Oc2ccc(F)cc2F)c2c(Cl)c[nH]c(=O)c21` [Example 108, 4-chloro-3-[2-(2,4-difluorophenoxy)-5-(methylsulfonyl)phenyl]-1-methyl-1,6-dihydro-7H-pyrrolo[2,3-c]pyridin-7-one], for which the EC50 in experiment [1] turned out to be 460 nM. For the same compound, the values for the Ki in experiment [2] and in experiment [3] were 93 nM and 181 nM, respectively.

In the case of `CCS(=O)(=O)c1ccc(Oc2ccc(Cl)cc2)c(-c2cn(C)c3c(=O)[nH]ccc23)c1` [Example 48, 3-[2-(4-chlorophenoxy)-5-(ethylsulfonyl)phenyl]-1-methyl-1,6-dihydro-7H-pyrrolo[2,3-c]pyridin-7-one], in experiment [1], the EC50 came to 114 nM. Besides, the Ki amounted to 14 nM in experiment [2] and 40 nM in experiment [3].

For the compound `Cn1cc(-c2cc(CNCC3CC3)ccc2Oc2ccc(F)cc2F)c2cc[nH]c(=O)c21` [Example 118, 3-[5-{[(cyclopropylmethyl)amino]methyl}-2-(2,4-difluorophenoxy)phenyl]-1-methyl-1,6-dihydro-7H-pyrrolo[2,3-c]pyridin-7-one], the EC50 in experiment [1] worked out at 1510 nM. Besides, the values for the Ki in experiment [2] and in experiment [3] were 776 nM and 382 nM, respectively.
